PMC9413440, “An Iterative Approach Guides Discovery of the FabI Inhibitor Fabimycin, a Late-Stage Antibiotic Candidate with In Vivo Efficacy against Drug-Resistant Gram-Negative Infections” (ACS Central Science, 2022)
≈ marks a conversion by molar mass, not a printed value.

Experiments:
[1] = tested on: A. baumannii AR-0033; assay: MIC, broth microdilution (CLSI); assay type: cell-based; settings: Acinetobacter baumannii, AR0033; A. baumannii AR-0033 clinical isolate; † = dose-independent trailing growth
Description: (§1) II. Materials and Methods for Biological Experiments
(§2) S. aureus ATCC 29213 and E. coli MG1655 were obtained from the American Type Culture Collection (ATCC). E. coli BW25113 and E. coli JW5503 were obtained from the Keio Collection. AR-bank strains were obtained from the Centers for Disease Control and Prevention and FDA Antibiotic Resistance Isolate Bank.
(§3) Antimicrobial susceptibility tests
(§4) Susceptibility testing was performed in biological triplicate, unless noted otherwise, using the micro-dilution broth method as outlined by the Clinical and Laboratory Standards Institute. Bacteria were cultured with cation-adjusted Mueller Hinton broth (Sigma Aldrich, catalogue number: 90922). […]
(§5) NH3: m/z 391.2 → 171.0. Fabimycin: m/z 405.3 → 145.3. Power analysis was not used to determine the number of replicates. Error bars represent the standard error of the mean of three biological replicates. All compounds evaluated in biological assays were ≥95% pure.

[2] = tested on: A. baumannii AR-0273; assay: MIC, broth microdilution (CLSI); assay type: cell-based; settings: Acinetobacter baumannii, AR0273; A. baumannii AR-0273 clinical isolate
Description: as §1, §2, §3, §4, §5

[3] = tested on: A. baumannii AR-0299; assay: MIC, broth microdilution (CLSI); assay type: cell-based; settings: Acinetobacter baumannii, AR0299; A. baumannii AR-0299 clinical isolate; † = dose-independent trailing growth
Description: as §1, §2, §3, §4, §5

[4] = tested on: E. coli AR-0048; assay: MIC, broth microdilution (CLSI); assay type: cell-based; settings: Escherichia coli, AR0048; E. coli AR-0048 clinical isolate
Description: as §1, §2, §3, §4, §5

[5] = tested on: E. coli AR-0085; assay: MIC, broth microdilution (CLSI); assay type: cell-based; settings: Escherichia coli, AR0085; E. coli AR-0085 clinical isolate
Description: as §1, §2, §3, §4, §5

[6] = tested on: E. coli MG1655; assay: MIC, broth microdilution (CLSI); assay type: cell-based; settings: Escherichia coli
Description: as §1, §2, §3, §4, §5

[7] = tested on: K. pneumoniae AR-0066; assay: MIC, broth microdilution (CLSI); assay type: cell-based; settings: Klebsiella pneumoniae, AR0066; K. pneumoniae AR-0066 clinical isolate
Description: as §1, §2, §3, §4, §5

[8] = tested on: K. pneumoniae AR-0560; assay: MIC, broth microdilution (CLSI); assay type: cell-based; settings: Klebsiella pneumoniae, AR0560; K. pneumoniae AR-0560 clinical isolate
Description: as §1, §2, §3, §4, §5

[9] = tested on: K. pneumoniae BAA-2472; assay: MIC, broth microdilution (CLSI); assay type: cell-based; settings: Klebsiella pneumoniae, BAA2472
Description: as §1, §2, §3, §4, §5

[10] = tested on: S. aureus ATCC 29213; assay: MIC, broth microdilution (CLSI); assay type: cell-based; settings: Staphylococcus aureus, ATCC29213; S. aureus 29213
Description: as §1, §2, §3, §4, §5

[11] = tested on: E. coli ΔtolC (JW5503); assay: MIC, broth microdilution (CLSI); assay type: cell-based, Escherichia coli
Description: as §1, §2, §3, §4, §5

[12] = tested on: A. baumannii AR-0313; assay: MIC, broth microdilution (CLSI); assay type: cell-based; settings: Acinetobacter baumannii, AR0313; A. baumannii AR-0313 clinical isolate; † = dose-independent trailing growth
Description: as §1, §2, §3, §4
(§6) Error bars represent the standard error of the mean of three biological replicates. All compounds evaluated in biological assays were ≥95% pure.

[13] = tested on: K. pneumoniae AR-0113; assay: MIC, broth microdilution (CLSI); assay type: cell-based; settings: Klebsiella pneumoniae, AR0113; K. pneumoniae AR-0113 clinical isolate
Description: as §1, §2, §3, §4, §6

[14] = tested on: panel of 10 clinical isolates (two E. coli, four K. pneumoniae, four A. baumannii); assay: MIC, Gram-negative clinical isolate challenge panel; assay type: cell-based; settings: 10 clinical isolates; read-out: MIC, all strains of the clinical isolate challenge panel
[15] = biological target: A. baumannii FabI (Acinetobacter baumannii, UniProt D0CAD5); assay: In vitro FabI enzymatic inhibition assay; assay type: biochemical; settings: AbFabI; Morrison's quadratic fit; 5 nM enzyme; read-out: Ki app
Description: (§7) supplemented with 100 µg/mL ampicillin at 37°C until OD600 reached 0.6-0.7. The cells were induced with 1mM IPTG and incubated for 20 hours at 18°C and spun down at 8000 rpm for 15 minutes. Cell pellet was resuspended in the lysis buffer (50 mM Tris-HCl pH 8.0, 500 mM Na Cl, 20 mM imidazole, 10% glycerol, 0.5 mM TCEP, protease inhibitor and Lysonase) and passed through microfluidizer followed by centrifugation and filtration to remove cell debris. The clarified lysate was supplemented with 20 mM imidazole and passed over a HisTrap column (Cytiva) pre-equilibrated with the wash buffer (50 mM Tris-HCl pH 8.0, 500 mM NaCl, 20 mM imidazole, 10% glycerol, 0.5 mM TCEP). The column was washed with the wash buffer and eluted over a 20-500 mM imidazole gradient. The appropriate fractions were pooled, and the histidine tag was removed by TEV cleavage. The protein mixture was passed over a HisTrap column to separate the cleaved protein from the uncleaved ones. The cleaved protein was pooled and passed over an S75 size exclusion column (GE LifeSciences) pre-equilibrated with 50 mM Tris-HCl pH 8.0, 500 mM NaCl, 0.5 mM TCEP and 10% glycerol. Fractions containing pure protein were pooled, concentrated at 10 mg/mL and stored at -80°C. […]
(§8) In vitro FabI enzymatic inhibition assay
(§9) Recombinant E. coli and A. baummani FabI enzymes were used in a continuous NADH absorbance assay (20 µL in 384w format). Compounds and the Crotonyl-CoA substrate (Sigma–Aldrich 28007) were dispensed into a plate (GeinerBio-One 781101). The reaction was initiated by the addition of a reaction master mix solution containing enzyme and NADH (Sigma–Aldrich N8129) suspended in reaction buffer (50 mM HEPES pH 7.4, 150 mM NaCl, 1 mM EDTA, 0.01 mg/mL BSA, 0.01% Tween). Final concentrations were 5 nM enzyme, 150 μM Crotonyl-CoA, 380 μM NADH, 0.05% DMSO in 1x reaction buffer. After shaking for 5 seconds the reaction was monitored at NADH absorbance (340nm, 25°C) using a Molecular Devices SpectraMax M5 microplate reader. The linear portion of the progress curve was fit using plate-reader software. Percentage activity was calculated relative to DMSO only and no-substrate controls in each plate and the data were fit to Morrison’s quadratic using Graphpad Prism 9.3 to obtain apparent inhibition constant (Ki app) values. […]
(§10) 480 Real-Time PCR System as a function of a temperature ramp (25-95°C; 0.1°/s) and the Tm was calculated using the […]

[16] = biological target: T1, E. coli FabI (Escherichia coli, UniProt P0AEK4); assay: In vitro FabI enzymatic inhibition assay; assay type: biochemical; settings: EcFabI; Morrison's quadratic fit; 5 nM enzyme; read-out: Ki app
T1 construct: His(6) with TEV site (cleaved yes); made in house; host or cells: E. coli BL21(DE3)
Description: as §7, §8, §9, §10

[17] = tested on: E. coli MG1655; design: method as in PMID 31740764; settings: cited from earlier work
[18] = design: method as in earlier work; settings: mice, 20% SBE-β-CD in H2O, IP, ref 19 (SI ref 3), cited from earlier work
[19] = tested on: K. pneumoniae clinical isolates (n=100); assay: MIC50/MIC90, clinical isolate panel; assay type: cell-based; settings: Klebsiella pneumoniae; K. pneumoniae (n=100) clinical isolates
From the text: Figure 4 Antimicrobial activity of fabimycin against clinical isolates. (A) The susceptibility of clinical isolates (Gram-negative species and S. aureus) to fabimycin, Debio-1452-NH3, and Debio-1452. MICs performed in biological triplicate. (B) Further exploration of the breadth of fabimycin’s antibacterial activity against diverse clinical isolate panels of K. pneumoniae and A. baumannii, as compared to levofloxacin. MICs performed in biological duplicate.
as §1, §2, §3, §4, §6

[20] = tested on: A. baumannii clinical isolates (n=100); assay: MIC50/MIC90, clinical isolate panel; assay type: cell-based; settings: Acinetobacter baumannii; A. baumannii (n=100) clinical isolates
[21] = E. coli ΔtolC = JW5503, efflux-deficient

T1 sequence (P0AEK4 whole entry): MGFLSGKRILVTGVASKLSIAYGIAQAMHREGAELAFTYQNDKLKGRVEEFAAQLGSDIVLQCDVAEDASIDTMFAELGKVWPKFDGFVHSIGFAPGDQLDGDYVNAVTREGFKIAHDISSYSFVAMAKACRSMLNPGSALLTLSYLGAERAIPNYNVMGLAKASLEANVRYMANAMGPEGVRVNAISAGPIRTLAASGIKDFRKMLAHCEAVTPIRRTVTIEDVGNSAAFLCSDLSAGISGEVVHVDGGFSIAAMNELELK
Chain of A. baumannii FabI (D0CAD5 entry or part of it): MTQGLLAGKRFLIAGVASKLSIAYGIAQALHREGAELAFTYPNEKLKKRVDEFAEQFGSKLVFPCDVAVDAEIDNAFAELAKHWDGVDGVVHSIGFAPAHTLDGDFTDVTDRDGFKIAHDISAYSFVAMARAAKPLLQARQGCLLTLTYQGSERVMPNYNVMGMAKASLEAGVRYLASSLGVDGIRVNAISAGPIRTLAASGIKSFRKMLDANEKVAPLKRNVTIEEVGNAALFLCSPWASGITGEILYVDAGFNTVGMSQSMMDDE

SMILES	MIC [1] [µg/mL]	MIC [2] [µg/mL]	MIC [3] [µg/mL]	MIC [4] [µg/mL]	MIC [5] [µg/mL]	MIC [6] [µg/mL]	MIC [7] [µg/mL]	MIC [8] [µg/mL]	MIC [9] [µg/mL]	MIC [10] [µg/mL]	MIC ([11]; Escherichia coli) [µg/mL]	MIC [12] [µg/mL]	MIC [13] [µg/mL]	MIC [11, 21] [µg/mL]	Ki [15] [nM]	Ki [16] [nM]	accumulation in Gram-negative bacteria (class in Figure 1A) [17]	also measured
Cc1c(CN(C)C(=O)/C=C/c2cnc3c(c2)CCC(N)C(=O)N3)oc2ccccc12 (racemic) [(±)-7]	4 (≈ 9.89 µM)	8 (≈ 19.8 µM)	4 (≈ 9.89 µM)	4 (≈ 9.89 µM)	4 (≈ 9.89 µM)	4 (≈ 9.89 µM)	8 (≈ 19.8 µM)	8 (≈ 19.8 µM)	8 (≈ 19.8 µM)	0.016 (≈ 0.0396 µM)	0.031 (≈ 0.0766 µM)	8 (≈ 19.8 µM)	8 (≈ 19.8 µM)	–	–	–	–	MIC [14]: ≤ 8 µg/mL
Cc1c(CN(C)C(=O)/C=C/c2cnc3c(c2)CC2(CC(N)C2)C(=O)N3)oc2ccccc12 (racemic) [(±)-3]	16 (≈ 37.2 µM)	16 (≈ 37.2 µM)	16 (≈ 37.2 µM)	16 (≈ 37.2 µM)	16 (≈ 37.2 µM)	4 (≈ 9.29 µM)	8 (≈ 18.6 µM)	8 (≈ 18.6 µM)	8 (≈ 18.6 µM)	0.016 (≈ 0.0372 µM)	0.062 (≈ 0.144 µM)	32 (≈ 74.3 µM)	16 (≈ 37.2 µM)	–	–	–	–	–
Cc1c(CN(C)C(=O)/C=C/c2cnc3c(c2)CCC(=O)N3)oc2ccccc12 [Debio-1452, reference compound]	> 32	> 32	> 32	> 32	> 32	–	> 32	> 32	> 32	–	–	> 32	> 32	0.062 (≈ 0.165 µM)	431 ± 85	97 ± 19	Non-accumulator	–
Cc1c(CN(C)C(=O)/C=C/c2cnc3c(c2)CC2(CC(CN)C2)C(=O)N3)oc2ccccc12 (racemic) [(±)-4]	–	–	–	–	–	16 (≈ 36 µM)	–	–	–	0.031 (≈ 0.0697 µM)	0.125 (≈ 0.281 µM)	–	–	–	–	–	–	–
Cc1c(CN(C)C(=O)/C=C/c2cnc3c(c2)CC(N)C(=O)N3)oc2ccccc12 (stereo not shown) [Debio-1452-NH3, reference compound]	32 (≈ 82 µM)	32 (≈ 82 µM)	32 (≈ 82 µM)	32 (≈ 82 µM)	16 (≈ 41 µM)	–	32 (≈ 82 µM)	32 (≈ 82 µM)	16 (≈ 41 µM)	–	–	32 (≈ 82 µM)	32 (≈ 82 µM)	0.062 (≈ 0.159 µM)	13 ± 2	9 ± 1	Accumulator	Multi-day QD dosing, MTD ([18]; 5d): 50 mg/kg; Single-dose MTD [18]: 50 mg/kg
C[C@H]1COc2c(N3CCN(C)CC3)c(F)cc3c(=O)c(C(=O)O)cn1c23 [levofloxacin, reference compound]	–	–	–	–	–	–	–	–	–	–	–	–	–	–	–	–	–	MIC50 [19]: 0.5 µg/mL (≈ 1.38 µM); MIC90 [19]: 32 µg/mL (≈ 88.6 µM); MIC50 [20]: 4 µg/mL (≈ 11.1 µM); MIC90 [20]: 32 µg/mL (≈ 88.6 µM)
